In US20090247520A1, “INHIBITORS OF ANTIGEN RECEPTOR-INDUCED NF-kappa B ACTIVATION” (The Burnham Institute for Medical Research, priority 2008, published 2009):
Entries after “also recorded” stand apart in the source; their conditions may differ.

Experiments:
[1] = system: CD4-TLR4 induced NF-κB reporter gene activity; test: NF-κB reporter in HEK293-NF-κB-luc cells transfected with CD4-TLR4; assay type: cell-based; settings: CID-2858522 4 μM, IKK inhibitor 10 μM, PKC inhibitor 1 μM
Description: (§1) FIGS. 3 (A-F) HEK293-NF-κB-luc cells were pretreated with CID-2858522 (4 μM), IKK inhibitor, BMS-335541 (10 μM), or PKC inhibitor, Bisindolylmaleimide I (1 μM) for 2 hrs and then transfected with plasmids encoding CD4/TLR4 (A), CD40 (B), NOD1 (C), NOD2 (D), cIAP2-MALT1 (E), or XIAP and TAB (F), or pcDNA as control (compounds were not removed). After 48 hrs, luciferase activity was measured expressing data as fold increase relative to unstimulated cells (mean±SD; n=3). (G-H) HEK293-NF-κB-luc cells were pretreated with CID-2858522 (4 μM), or IKK inhibitor, BMS-335541 (10 μM) for 2 hrs and then cultured with 2 μM doxorubicin (G) or 16 μM retinoic acid (H). After 48 hrs, luciferase activity was measured as above.
(§2) Counter Screening and Secondary Assays. To counter-screen for inhibitors of the TNF pathway, HEK293-NFκB-Luc cells were seeded at 10^5 cells per well in 90 μL medium in white 96-well plates (Greiner Bio-One) and cultured overnight, before adding compounds (5 μL in medium) to cells. […] Luciferase activity was measured using Britelite kit (Perkin Elmer). […] Cells were cultured in medium containing CID-2858522 or other compounds and luciferase activity was measured 48 h later. […] Reactions were then initiated by addition of 50 μL 160 nM ATP (Sigma) in PBS and luciferase activity was measured 2 h later using a luminometer (LJL Biosystems, Sunnyvale, Calif.).

[2] = system: doxorubicin-induced NF-κB activity; test: NF-κB reporter in HEK293-NF-κB-luc cells stimulated with doxorubicin; assay type: cell-based; settings: 2 μM doxorubicin; CID-2858522 4 μM, IKK inhibitor 10 μM
Description: as §1, §2

PKC-beta = molecular target: T1, PKC-beta (Homo sapiens, UniProt P05771); test: In vitro kinase assay PKC-beta (HTScan kit); assay type: biochemical; settings: CID-2858522 up to 8 μM; STS 0.5 μM; PKC inhibitor 1 μM
T1 construct: purchased Cell Signaling, Danvers, Mass
T1 sequence (P05771 whole entry): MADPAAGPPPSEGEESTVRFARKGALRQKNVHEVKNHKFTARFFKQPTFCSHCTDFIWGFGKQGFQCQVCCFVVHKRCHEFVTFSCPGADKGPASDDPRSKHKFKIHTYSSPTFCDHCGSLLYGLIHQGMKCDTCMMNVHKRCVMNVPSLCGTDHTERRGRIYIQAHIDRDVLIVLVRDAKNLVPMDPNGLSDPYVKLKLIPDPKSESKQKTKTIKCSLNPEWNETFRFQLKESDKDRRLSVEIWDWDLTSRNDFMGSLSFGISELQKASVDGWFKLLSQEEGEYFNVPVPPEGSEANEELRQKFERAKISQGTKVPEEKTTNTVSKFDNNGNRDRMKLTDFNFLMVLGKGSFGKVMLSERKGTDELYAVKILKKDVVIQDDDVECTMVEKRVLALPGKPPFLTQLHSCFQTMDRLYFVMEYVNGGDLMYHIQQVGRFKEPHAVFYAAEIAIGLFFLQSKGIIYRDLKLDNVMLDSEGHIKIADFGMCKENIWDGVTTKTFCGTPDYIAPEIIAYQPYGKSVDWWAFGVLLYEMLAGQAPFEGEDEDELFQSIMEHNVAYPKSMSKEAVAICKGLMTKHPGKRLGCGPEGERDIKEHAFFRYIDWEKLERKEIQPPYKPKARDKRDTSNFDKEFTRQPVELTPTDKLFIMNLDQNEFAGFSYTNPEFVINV
Description: CID-2858522 (8 μM) were tested in in vitro IKK beta (A), PKC beta […] or PKC theta (C) kinase assays using kits. STS (0.5 μM), IKK inhibitor (10 μM) and PKC inhibitor (1 μM) were used as positive controls.
In Vitro Kinase Assays. PKC-beta, PKC-theta and IKK-beta in vitro kinase assays were performed using the HTScan Kinase Assay Kit (Cell Signaling, Danvers, Mass.) according to manufacturer's protocols. A panel of >300 kinases was screened by Ambit, Inc.

TRAF1 induction = test: TRAF1 expression in anti-IgM-stimulated CLL B-cells (immunoblot); assay type: cell-based, human; settings: 24 hr after stimulation
Description: (A) Isolated mouse primary splenocytes were cultured with anti-CD3/anti-CD28 (0.3 μg/mL each) or anti-IgM (3 μg/mL) for 48 h, then 1 μCi 3H-Thymidine was added for 12 h and incorporation into DNA was measured, expressing data as fold increase above unstimulated cells (mean±SD; n=3). (B-D) Primary splenocytes were pretreated for 2 h with IKK inhibitor, BMS-335541 (B), PKC inhibitor, Bisindolylmaleimide I (C) or CID-2858522 (D), then stimulated with anti-CD3/anti-CD28 (0.3 μg/mL) or anti-IgM (3 μg/mL) for 48 h. 1 μCi 3H-Thymidine was added for 12 h and incorporation into DNA was measured, expressing data as percent inhibition relative to control cells treated with DMSO (mean±SD; n=3). […] Levels of TRAF1 and β-actin were assessed by immunoblotting, quantified by densitometry and TRAF1 results reported relative to control cells, after normalization for β-actin (mean±SD). […] Then nuclear extracts were prepared and p65-DNA-binding activity was measured (mean±SD; n=3).
Chronic Lymphocytic Leukemia (CLL) cell culture. Peripheral blood mononuclear cells from CLL patients were obtained under IRB approval from whole blood by Ficoll density gradient centrifugation and cultured with RPMI 1640 Medium supplemented with 10% FBS and antibiotics.

Cc1ccc2nc(NCCN)c3ncc(C)n3c2c1 [BMS-345541, reference compound]
suppression of TLR4 (CD4-TLR4) induced NF-κB reporter [1]: suppressed
suppression of doxorubicin-induced NF-κB activity [2]: suppressed

CN(C)CCCn1cc(C2=C(c3c[nH]c4ccccc34)C(=O)NC2=O)c2ccccc21 [Bisindolylmaleimide I, reference compound]
inhibition of PKC-beta kinase activity (PKC-beta): potent inhibition
inhibition of anti-IgM-stimulated TRAF1 expression (TRAF1 induction): also inhibited

Cc1cc2nc(NCCCO)n(CC(=O)c3cc(C(C)(C)C)c(O)c(C(C)(C)C)c3)c2cc1C [Compound 1, 2-(2-(3-Hydroxypropylamino)-5,6-dimethyl-1H-benzo[d]imidazol-1-yl)-1-(3,5-di-tert-butyl-4-hydroxyphenyl)ethanone]
inhibition of PKC-beta kinase activity (PKC-beta): failed to suppress
suppression of TLR4 (CD4-TLR4) induced NF-κB reporter [1]: did not inhibit; also recorded: not by CID-2858522
inhibition of anti-IgM-stimulated TRAF1 expression (TRAF1 induction): inhibited
suppression of doxorubicin-induced NF-κB activity [2]: did not inhibit
